Structures can show the parent of a compound that is named as a salt.
Molecular target: recombinant human PAI-1 (Homo sapiens, UniProt P05121)
Assay: Test Example 1: human PAI-1 inhibitory activity (tPA fluorogenic substrate, pH7.5 Tris buffer)
Assay type: biochemical
Parameters: purchased Molecular Innovations, Inc
Conditions: for Inhibition Rate of Human PAI-1 Activity (%): Tris buffer pH7.5
[1] = pH 7.5, read-out: Inhibition Rate of Human PAI-1 Activity (%)

recombinant human PAI-1, sequence (P05121 24-402): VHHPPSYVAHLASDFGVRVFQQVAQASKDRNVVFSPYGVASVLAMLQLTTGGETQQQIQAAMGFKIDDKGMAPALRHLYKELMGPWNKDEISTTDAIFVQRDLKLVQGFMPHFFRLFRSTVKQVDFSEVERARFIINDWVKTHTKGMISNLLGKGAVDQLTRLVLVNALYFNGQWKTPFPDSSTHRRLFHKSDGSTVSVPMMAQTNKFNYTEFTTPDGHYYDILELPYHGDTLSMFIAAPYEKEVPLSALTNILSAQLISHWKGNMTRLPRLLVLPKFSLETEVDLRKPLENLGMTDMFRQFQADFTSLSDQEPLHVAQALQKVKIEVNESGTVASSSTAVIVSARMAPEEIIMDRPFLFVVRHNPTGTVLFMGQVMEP
Protocol: In a 96-well multiplate (black), 1.5 μl of DMSO solution of the present application compound prepared to achieve 80-fold the test concentration (=the final concentration when fluorogenic substrate is added) was diluted with 52.5 μl of pH7.5 Tris buffer. […] Furthermore, 30 μl of 800 IU/ml two-chain tPA (Activity Standard; American diagnostics, inc.) prepared by Tris buffer was added, and the mixed solution was incubated for 15 minutes at room temperature. To this, 30 μl of 400 μM fluorogenic substrate (Pyr-Gly-Arg-MCA; Peptide Institute, Inc.) for tPA prepared by Tris buffer was added and reacted for 30 minutes at room temperature.
<Composition of pH7.5 Tris Buffer)

O=C(O)Cc1cc(-c2ccc(OC(F)(F)F)cc2)ccc1OCc1ccccc1 [Compound 1, [4-benzyloxy-4′-(trifluoromethoxy)biphenyl-3-yl]acetic acid]
Inhibition Rate of Human PAI-1 Activity (%) (compound 5 μM): 18% | Inhibition Rate of Human PAI-1 Activity (%) (compound 10 μM): 31%

O=C(O)/C=C/c1cc(-c2ccc(OC(F)(F)F)cc2)ccc1OCc1ccccc1 [Compound 2, (E)-3-[4-benzyloxy-4′-(trifluoromethoxy)biphenyl-3-yl]propenoic acid]
inhibition at 5 µM [1]: 35% | inhibition at 10 µM [1]: 31%

O=C(O)CCc1cc(-c2ccc(OC(F)(F)F)cc2)ccc1OCc1ccccc1 [Compound 3, 3-[4-benzyloxy-4′-(trifluoromethoxy)biphenyl-3-yl]propanoic acid]
Inhibition Rate of Human PAI-1 Activity (%) (compound 5 μM): 35% | Inhibition Rate of Human PAI-1 Activity (%) (compound 10 μM): 68%

CC(C)(C)c1ccc(COc2ccc(-c3ccc(OC(F)(F)F)cc3)cc2/C=C/C(=O)O)cc1 [Compound 4, (E)-3-{4-[4-(tert-butyl)benzyloxy]-4′-(trifluoromethoxy)biphenyl-3-yl}propenoic acid]
Inhibition Rate of Human PAI-1 Activity (%) (compound 5 μM): 84% | Inhibition Rate of Human PAI-1 Activity (%) (compound 10 μM): 78%

CC(C)(C)c1ccc(COc2ccc(-c3ccc(OC(F)(F)F)cc3)cc2NC(=O)C(=O)O)cc1 [Compound 6, N-{4-[4-(tert-butyl)benzyloxy]-4′-(trifluoromethoxy)biphenyl-3-yl}oxamic acid sodium salt]
Inhibition Rate of Human PAI-1 Activity (%) (compound 5 μM): 83% | Inhibition Rate of Human PAI-1 Activity (%) (compound 10 μM): 94%

CC(C)(C)c1ccc(Oc2ccc(-c3ccc(OC(F)(F)F)cc3)cc2/C=C\C(=O)O)cc1 [Compound 12, (Z)-3-{4-[4-(tert-butyl)phenoxy]-4′-(trifluoromethoxy)biphenyl-3-yl}propenoic acid]
Inhibition Rate of Human PAI-1 Activity (%) (compound 5 μM): 92% | Inhibition Rate of Human PAI-1 Activity (%) (compound 10 μM): 94%

O=C(O)CCc1cc(-c2ccc(OC(F)(F)F)cc2)ccc1Oc1ccc(C(=O)O)cc1 [Compound 15, 3-[4-(4-carboxyphenoxy)-4′-(trifluoromethoxy)biphenyl-3-yl]propanoic acid]
Inhibition Rate of Human PAI-1 Activity (%) (compound 10 μM): 3%

CN(C(=O)C(=O)O)c1cc(-c2ccc(OC(F)(F)F)cc2)ccc1OCc1ccc(C(C)(C)C)cc1 [Compound 18, N-{4-[4-(tert-butyl)benzyloxy]-4′-(trifluoromethoxy)biphenyl-3-yl}-N-methyloxamic acid]
Inhibition Rate of Human PAI-1 Activity (%) (compound 5 μM): 37% | Inhibition Rate of Human PAI-1 Activity (%) (compound 10 μM): 67% | Inhibition Rate of Human PAI-1 Activity (%) (compound 25 μM): 97%

O=C(O)CCc1cc(-c2ccc(OC(F)(F)F)cc2)ccc1OCc1ccc(C(F)(F)F)cc1 [Compound 26, 3-{4′-(trifluoromethoxy)-4-[4-(trifluoromethyl)benzyloxy]biphenyl-3-yl}propanoic acid]
Inhibition Rate of Human PAI-1 Activity (%) (compound 10 μM): 13% | Inhibition Rate of Human PAI-1 Activity (%) (compound 25 μM): 80%

COc1ccccc1COc1ccc(-c2ccc(OC(F)(F)F)cc2)cc1CCC(=O)O [Compound 28, 3-[4-(2-methoxybenzyloxy)-4′-(trifluoromethoxy)biphenyl-3-yl]propanoic acid]
Inhibition Rate of Human PAI-1 Activity (%) (compound 10 μM): 7% | Inhibition Rate of Human PAI-1 Activity (%) (compound 25 μM): 47%

O=C(O)/C=C\c1cc(-c2ccc(OC(F)(F)F)cc2)ccc1OCc1ccccc1 [Compound 29, (Z)-3-[4-benzyloxy-4′-(trifluoromethoxy)biphenyl-3-yl]propenoic acid]
Inhibition Rate of Human PAI-1 Activity (%) (compound 10 μM): 11% | Inhibition Rate of Human PAI-1 Activity (%) (compound 25 μM): 64%

CC(C)(C)c1ccc(COc2ccc(-c3ccc(OC(F)(F)F)cc3)cc2/C=C\C(=O)O)cc1 [Compound 30, (Z)-3-{4-[4-(tert-butyl)benzyloxy]-4′-(trifluoromethoxy)biphenyl-3-yl}propenoic acid]
Inhibition Rate of Human PAI-1 Activity (%) (compound 5 μM): 96% | Inhibition Rate of Human PAI-1 Activity (%) (compound 10 μM): 97% | Inhibition Rate of Human PAI-1 Activity (%) (compound 25 μM): 93%

CC(C)(C)c1ccc(COc2ccc(-c3cccc(C(=O)O)c3)cc2CCC(=O)O)cc1 [Compound 31, 3-{4-[4-(tert-butyl)benzyloxy]-3′-carboxybiphenyl-3-yl}propanoic acid]
Inhibition Rate of Human PAI-1 Activity (%) (compound 10 μM): 9% | Inhibition Rate of Human PAI-1 Activity (%) (compound 25 μM): 25%

O=C(O)CCc1cc(-c2ccc(OC(F)(F)F)cc2)ccc1OCc1ccc(Cl)cc1Cl [Compound 32, 3-[4-(2,4-dichlorobenzyloxy)-4′-(trifluoromethoxy)biphenyl-3-yl]propanoic acid]
Inhibition Rate of Human PAI-1 Activity (%) (compound 5 μM): 5% | Inhibition Rate of Human PAI-1 Activity (%) (compound 10 μM): 29% | Inhibition Rate of Human PAI-1 Activity (%) (compound 25 μM): 92%

CCCCc1ccc(COc2ccc(-c3ccc(OC(F)(F)F)cc3)cc2CCC(=O)O)cc1 [Compound 35, 3-[4-(4-butylbenzyloxy)-4′-(trifluoromethoxy)biphenyl-3-yl]propanoic acid]
Inhibition Rate of Human PAI-1 Activity (%) (compound 25 μM): >99%

CC(C)(C)c1ccc(COc2ccc(-c3ccccc3)cc2/C=C/C(=O)O)cc1 [Compound 36, (E)-3-{4-[4-(tert-butyl)benzyloxy]biphenyl-3-yl}propenoic acid]
Inhibition Rate of Human PAI-1 Activity (%) (compound 5 μM): 21% | Inhibition Rate of Human PAI-1 Activity (%) (compound 10 μM): 49% | Inhibition Rate of Human PAI-1 Activity (%) (compound 25 μM): 89%

CC(C)(C)c1ccc(COc2ccc(-c3ccccc3)cc2CCC(=O)O)cc1 [Compound 37, 3-{4-[4-(tert-butyl)benzyloxy]biphenyl-3-yl}propanoic acid]
Inhibition Rate of Human PAI-1 Activity (%) (compound 5 μM): 22% | Inhibition Rate of Human PAI-1 Activity (%) (compound 10 μM): 47% | Inhibition Rate of Human PAI-1 Activity (%) (compound 25 μM): 97%

CC(C)(C)c1ccc(COc2ccc(-c3ccc(F)cc3)cc2/C=C/C(=O)O)cc1 [Compound 38, (E)-3-{4-[4-(tert-butyl)benzyloxy]-4′-fluorobiphenyl-3-yl}propenoic acid]
Inhibition Rate of Human PAI-1 Activity (%) (compound 5 μM): 23% | Inhibition Rate of Human PAI-1 Activity (%) (compound 10 μM): 53% | Inhibition Rate of Human PAI-1 Activity (%) (compound 25 μM): 96%

CC(C)(C)c1ccc(COc2ccc(-c3ccc(F)cc3)cc2CCC(=O)O)cc1 [Compound 39, 3-{4-[4-(tert-butyl)benzyloxy]-4′-fluorobiphenyl-3-yl}propanoic acid]
Inhibition Rate of Human PAI-1 Activity (%) (compound 5 μM): 24% | Inhibition Rate of Human PAI-1 Activity (%) (compound 10 μM): 53% | Inhibition Rate of Human PAI-1 Activity (%) (compound 25 μM): 99%

CC(C)(C)c1ccc(COc2ccc(-c3ccc(C(F)(F)F)cc3)cc2/C=C/C(=O)O)cc1 [Compound 40, (E)-3-{4-[4-(tert-butyl)benzyloxy]-4′-(trifluoromethyl)biphenyl-3-yl}propenoic acid]
Inhibition Rate of Human PAI-1 Activity (%) (compound 5 μM): 28% | Inhibition Rate of Human PAI-1 Activity (%) (compound 10 μM): 57% | Inhibition Rate of Human PAI-1 Activity (%) (compound 25 μM): 95%

CC(C)(C)c1ccc(COc2ccc(-c3ccc(C(F)(F)F)cc3)cc2CCC(=O)O)cc1 [Compound 41, 3-{4-[4-(tert-butyl)benzyloxy]-4′-(trifluoromethyl)biphenyl-3-yl}propanoic acid]
Inhibition Rate of Human PAI-1 Activity (%) (compound 5 μM): 23% | Inhibition Rate of Human PAI-1 Activity (%) (compound 10 μM): 60% | Inhibition Rate of Human PAI-1 Activity (%) (compound 25 μM): 99%

COc1ccc(-c2ccc(OCc3ccc(C(C)(C)C)cc3)c(/C=C/C(=O)O)c2)cc1 [Compound 42, (E)-3-{4-[4-(tert-butyl)benzyloxy]-4′-methoxybiphenyl-3-yl}propenoic acid]
Inhibition Rate of Human PAI-1 Activity (%) (compound 5 μM): 23% | Inhibition Rate of Human PAI-1 Activity (%) (compound 10 μM): 47% | Inhibition Rate of Human PAI-1 Activity (%) (compound 25 μM): 84%

COc1ccc(-c2ccc(OCc3ccc(C(C)(C)C)cc3)c(CCC(=O)O)c2)cc1 [Compound 43, 3-{4-[4-(tert-butyl)benzyloxy]-4′-methoxybiphenyl-3-yl}propanoic acid]
Inhibition Rate of Human PAI-1 Activity (%) (compound 5 μM): 14% | Inhibition Rate of Human PAI-1 Activity (%) (compound 10 μM): 34% | Inhibition Rate of Human PAI-1 Activity (%) (compound 25 μM): 93%

CC(C)(C)c1ccc(COc2ccc(-c3ccc(C(C)(C)C)cc3)cc2/C=C/C(=O)O)cc1 [Compound 44, (E)-3-{4′-(tert-butyl)-4-[4-(tert-butyl)benzyloxy]biphenyl-3-yl}propenoic acid]
Inhibition Rate of Human PAI-1 Activity (%) (compound 5 μM): 25% | Inhibition Rate of Human PAI-1 Activity (%) (compound 10 μM): 56% | Inhibition Rate of Human PAI-1 Activity (%) (compound 25 μM): 94%

CC(C)(C)c1ccc(COc2ccc(-c3ccc(C(C)(C)C)cc3)cc2CCC(=O)O)cc1 [Compound 45, 3-{4′-(tert-butyl)-4-[4-(tert-butyl)benzyloxy]biphenyl-3-yl}propanoic acid]
Inhibition Rate of Human PAI-1 Activity (%) (compound 5 μM): 22% | Inhibition Rate of Human PAI-1 Activity (%) (compound 10 μM): 66% | Inhibition Rate of Human PAI-1 Activity (%) (compound 25 μM): >99%

CCCCc1ccc(-c2ccc(OCc3ccc(C(C)(C)C)cc3)c(CCC(=O)O)c2)cc1 [Compound 48, 3-{4′-butyl-4-[4-(tert-butyl)benzyloxy]biphenyl-3-yl}propanoic acid]
Inhibition Rate of Human PAI-1 Activity (%) (compound 5 μM): 29% | Inhibition Rate of Human PAI-1 Activity (%) (compound 10 μM): 66% | Inhibition Rate of Human PAI-1 Activity (%) (compound 25 μM): 94%

CSc1ccc(-c2ccc(OCc3ccc(C(C)(C)C)cc3)c(/C=C/C(=O)O)c2)cc1 [Compound 49, (E)-3-{4-[4-(tert-butyl)benzyloxy]-4′-(methylsulfanyl)biphenyl-3-yl}propenoic acid]
Inhibition Rate of Human PAI-1 Activity (%) (compound 5 μM): 16% | Inhibition Rate of Human PAI-1 Activity (%) (compound 10 μM): 25% | Inhibition Rate of Human PAI-1 Activity (%) (compound 25 μM): 21%

CC(C)(C)c1ccc(-c2ccc(OCc3ccccc3)c(/C=C/C(=O)O)c2)cc1 [Compound 52, (E)-3-[4-benzyloxy-4′-(tert-butyl)biphenyl-3-yl]propenoic acid]
Inhibition Rate of Human PAI-1 Activity (%) (compound 5 μM): 22% | Inhibition Rate of Human PAI-1 Activity (%) (compound 10 μM): 47% | Inhibition Rate of Human PAI-1 Activity (%) (compound 25 μM): 91%

CC(C)(C)c1ccc(-c2ccc(OCc3ccccc3)c(CCC(=O)O)c2)cc1 [Compound 53, 3-[4-benzyloxy-4′-(tert-butyl)biphenyl-3-yl]propanoic acid]
Inhibition Rate of Human PAI-1 Activity (%) (compound 5 μM): 20% | Inhibition Rate of Human PAI-1 Activity (%) (compound 10 μM): 50% | Inhibition Rate of Human PAI-1 Activity (%) (compound 25 μM): 93%

CC(C)(C)c1ccc(-c2ccc(OCc3ccc(OC(F)(F)F)cc3)c(/C=C/C(=O)O)c2)cc1 [Compound 56, (E)-3-{4′-(tert-butyl)-4-[4-(trifluoromethoxy)benzyloxy]biphenyl-3-yl}propenoic acid]
Inhibition Rate of Human PAI-1 Activity (%) (compound 5 μM): 32% | Inhibition Rate of Human PAI-1 Activity (%) (compound 10 μM): 69% | Inhibition Rate of Human PAI-1 Activity (%) (compound 25 μM): 94%

CC(C)(C)c1ccc(-c2ccc(OCc3ccc(OC(F)(F)F)cc3)c(CCC(=O)O)c2)cc1 [Compound 57, 3-{4′-(tert-butyl)-4-[4-(trifluoromethoxy)benzyloxy]biphenyl-3-yl}propanoic acid]
Inhibition Rate of Human PAI-1 Activity (%) (compound 5 μM): 28% | Inhibition Rate of Human PAI-1 Activity (%) (compound 10 μM): 64% | Inhibition Rate of Human PAI-1 Activity (%) (compound 25 μM): 94%
